Assay results as given in US7387895B2, “Monoclonal antibody specific for PPAR gamma, hydridoma cell line producing the same, and method for detecting regulator related to diseases, including inflammation, cancer and metabolic diseases, using the same” (Korea Research Institute of Bioscience and Biotechnology, priority 2003, dated 2008).
“Also recorded” adds a separate entry of the source.

Legend:
[1] = target: T1, binding between SRC-1 and PPAR gamma2 proteins (Homo sapiens, UniProt P37231); assay: ELISA of binding between SRC-1 and PPAR gamma2; type: biochemical; details: 8 μg/ml SRC-1 coated, GST-PPAR gamma2 lysate diluted 64-fold, ligand at different concentrations, FIG. 7B
T1 construct: made in house; host or cells: E. coli (pGEX4T-1/PPARgamma2, KCTC 10190BP; pET28a/SRC-1, KCTC 10191BP)
Description: To examine the effect of PPAR gamma2 protein concentration on the binding between SRC-1 and PPAR gamma2 proteins, the following test was conducted. […] Also, this procedure was repeated three times, and a GST-fused protein which had not been bound to SRC-1 protein was used as a control group. […] Furthermore, to examine the effect of PPAR gamma2 ligand concentration on the binding between SRC-1 and PPAR gamma2 proteins, the following test was conducted. 8 μg/ml SRC-1 was coated on a plate, and E. coli lysate was diluted 64-fold and added to the plate. Then, indomethacin, a PPAR gamma2 ligand, was added to the plate at a different concentration.
His-SRC-1 protein was diluted with 0.1 M sodium carbonate buffer (pH 9.6) to a concentration of about 800 ng/well. 100 μl of the protein dilution was loaded into each well of an ELISA plate, and coated on the plate overnight at 4° C. The coated plate was washed three times with PBS (containing 0.05% Tween®-20), and added with 3% skimmed-PBST solution and left to stand overnight at 4° C. or for 2 hours at room temperature. A soluble fraction of GST-fused PPAR gamma2 was diluted […], and 50 μl of the dilution was added to each well of the plate. Indomethacin, a PPAR gamma2 agonist, was added at 1 μM, 10 μM and 100 μM. […]

[2] = target: T2, PPAR gamma (Homo sapiens, UniProt P37231); details: components of oxLDL; cited from earlier work
T2 sequence (P37231 1-505): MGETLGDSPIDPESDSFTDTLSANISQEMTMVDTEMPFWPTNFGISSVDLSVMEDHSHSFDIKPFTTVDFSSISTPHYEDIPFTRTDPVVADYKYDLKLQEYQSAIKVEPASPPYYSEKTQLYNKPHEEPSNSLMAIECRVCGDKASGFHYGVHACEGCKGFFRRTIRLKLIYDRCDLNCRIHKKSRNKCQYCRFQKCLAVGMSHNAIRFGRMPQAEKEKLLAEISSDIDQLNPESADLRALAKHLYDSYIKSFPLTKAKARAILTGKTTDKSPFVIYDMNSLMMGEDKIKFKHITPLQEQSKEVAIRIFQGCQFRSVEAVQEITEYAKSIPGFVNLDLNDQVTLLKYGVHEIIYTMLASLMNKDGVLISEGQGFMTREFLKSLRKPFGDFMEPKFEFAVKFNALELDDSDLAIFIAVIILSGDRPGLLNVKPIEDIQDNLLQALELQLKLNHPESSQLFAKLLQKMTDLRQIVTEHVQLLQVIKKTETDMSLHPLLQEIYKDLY

[3] = tested on: NF-κB; details: cited from earlier work
[4] = tested on: cytokine production; details: cited from earlier work

T1 sequence (Q15788 whole entry partner, one chain of several): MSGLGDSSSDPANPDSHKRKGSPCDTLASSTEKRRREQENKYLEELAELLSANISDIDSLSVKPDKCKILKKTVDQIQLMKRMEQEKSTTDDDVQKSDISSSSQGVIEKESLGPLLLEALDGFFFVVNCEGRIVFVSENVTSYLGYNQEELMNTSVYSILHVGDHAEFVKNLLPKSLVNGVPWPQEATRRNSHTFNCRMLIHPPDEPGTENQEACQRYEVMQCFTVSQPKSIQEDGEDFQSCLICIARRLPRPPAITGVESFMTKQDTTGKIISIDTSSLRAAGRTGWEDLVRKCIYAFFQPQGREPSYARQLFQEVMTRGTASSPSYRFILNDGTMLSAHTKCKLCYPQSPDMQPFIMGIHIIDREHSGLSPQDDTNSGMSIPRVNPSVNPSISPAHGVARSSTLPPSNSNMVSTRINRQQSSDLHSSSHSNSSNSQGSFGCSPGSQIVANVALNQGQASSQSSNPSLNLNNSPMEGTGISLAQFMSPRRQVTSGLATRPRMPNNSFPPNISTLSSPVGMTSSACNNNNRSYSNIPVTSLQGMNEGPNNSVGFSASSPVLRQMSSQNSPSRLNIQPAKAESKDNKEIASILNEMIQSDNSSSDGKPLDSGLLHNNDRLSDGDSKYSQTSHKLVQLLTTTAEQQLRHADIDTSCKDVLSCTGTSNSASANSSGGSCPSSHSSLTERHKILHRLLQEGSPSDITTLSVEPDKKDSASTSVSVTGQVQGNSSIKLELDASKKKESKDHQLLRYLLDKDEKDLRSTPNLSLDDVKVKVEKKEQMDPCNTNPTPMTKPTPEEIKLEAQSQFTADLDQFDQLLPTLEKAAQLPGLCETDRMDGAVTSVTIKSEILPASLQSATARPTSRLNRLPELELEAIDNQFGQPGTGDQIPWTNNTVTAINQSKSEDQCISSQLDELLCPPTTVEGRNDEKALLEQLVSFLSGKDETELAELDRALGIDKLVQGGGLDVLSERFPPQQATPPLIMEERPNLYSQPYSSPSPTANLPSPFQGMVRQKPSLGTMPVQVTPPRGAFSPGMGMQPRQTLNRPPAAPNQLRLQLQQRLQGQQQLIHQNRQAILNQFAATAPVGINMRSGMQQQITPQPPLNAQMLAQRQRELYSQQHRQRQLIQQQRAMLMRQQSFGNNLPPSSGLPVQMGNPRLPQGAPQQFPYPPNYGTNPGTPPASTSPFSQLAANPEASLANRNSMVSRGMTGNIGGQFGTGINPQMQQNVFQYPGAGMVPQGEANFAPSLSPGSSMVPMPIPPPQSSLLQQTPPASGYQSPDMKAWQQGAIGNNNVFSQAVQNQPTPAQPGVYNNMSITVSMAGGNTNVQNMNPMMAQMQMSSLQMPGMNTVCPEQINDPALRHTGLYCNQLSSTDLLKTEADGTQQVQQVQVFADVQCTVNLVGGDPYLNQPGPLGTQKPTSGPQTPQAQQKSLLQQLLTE

## COc1ccc2c(c1)c(CC(=O)O)c(C)n2C(=O)c1ccc(Cl)cc1 [indomethacin]
[1]
  binding between SRC-1 and PPAR gamma2: dependent on the concentration of indomethacin; also recorded: increased

## CCCCC/C=C\C=C\C(O)CCCCCCCC(=O)O (stereo not drawn) [9-HODE]
[2]
  PPAR gamma agonist activity: PPAR gamma agonists

## CCCCCC(O)/C=C/C=C\CCCCCCCC(=O)O (stereo not drawn) [13-HODE]
[2]
  PPAR gamma agonist activity: PPAR gamma agonists

## CCCCC/C=C/C=C1/C(=O)C=C[C@@H]1C/C=C\CCCC(=O)O [15d-PGJ2]
[3]
  NF-κB activity: inhibit NF-κB activity
[4]; PPAR gamma+/+, +/- or -/- embryonic stem cells
  cytokine production in embryonic stem cells: inhibited cytokine production
[4]; monocytes or macrophages
  cytokine production of monocytes or macrophages in vitro: the most powerful inhibitor
